Assay results taken from PubChem BioAssay AID651717 (Broad Institute, 2012).

System: mESC Bmi1-luciferase reporter, firefly/renilla ratio, 24 h
Assay: compounds raising Bmi1 reporter signal – mouse embryonic stem cells, luciferase, cherry-pick, esBAF inhibitor project, dose response (AID 651717);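 also: luciferase knocked into Bmi1 locus with EF-1a renilla as cell number control; rising ratio signals esBAF inhibition which derepresses Bmi1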

Row | Structure (SMILES) | AC40
1 | Cc1ccc(NC(=O)c2ccnc(C(C)(C)C)c2)cc1 | 1.95 µM
2 | COc1cc2c(cc1NC(=O)C(C)OC(=O)/C=C/c1ccc(OC(F)F)cc1)oc1ccccc12 (stereo unspecified) | 3.91 µM
3 | C/C(=C\C(=O)c1cccnc1)Nc1ccc(C)c(C)c1 | 3.36 µM
4 | CCn1c(SCc2ccccc2Cl)nc2ccccc21 | 5.49 µM
5 | COc1ccc(-c2coc3cc(OC(C)=O)ccc3c2=S)cc1 | 0.794 µM
6 | CNc1nc(-c2ccc3c(c2)CCN3C(=O)c2ccc(F)cc2)cs1 | 8.13 µM
7 | COc1ccccc1C(=O)Nn1cnc2ccccc2c1=O | 8.5 µM
8 | CN(CCc1ccccn1)C(=O)CCc1nnc(CCCc2ccccc2)o1 | 4.93 µM
9 | O=C(Nc1cccc(F)c1)c1c(O)c2ccccc2[nH]c1=O | 1.29 µM
10 | COc1cc(CNc2ccc(N3CCN(C(C)=O)CC3)cc2)ccc1OCc1ccc(F)cc1 | 3.93 µM
11 | NC(=O)c1ccccc1-c1nc(-c2ccccc2)no1 | 4.23 µM
12 | CCn1c2ccccc2c2cc(NC(=O)N3CCCCC3)ccc21 | 1.19 µM
13 | CC(C)(C)NC(=O)Cn1nnc(-c2ccccc2Cl)n1 | 5.29 µM
14 | CSc1nnc(NC(=O)c2cc3ccccc3oc2=O)s1 | 5.97 µM
15 | Cc1ccc(NC(=O)C(=O)Nc2ccc(C)cn2)nc1 | 0.497 µM
16 | COc1cc2ccccc2cc1C(=O)Nc1ccncc1 | 5.2 µM
17 | Cc1cccc(-c2noc(Cc3ccccc3)n2)c1 | 2.87 µM
18 | O=C(Nc1ccc(F)cc1)c1ccccc1 | 7.36 µM
19 | Cc1ccc(Cl)cc1-c1cc(C(=O)Nc2ccc(F)cc2)[nH]n1 | 4.92 µM
20 | CC(=O)Nc1ccc(NC(=O)c2cccc(-c3cc4ccccc4oc3=O)c2)cc1 | 9.75 µM
21 | CC(C)C1C(=O)N(Cc2cn(CCC3OCCCO3)nn2)CCS(=O)(=O)N1Cc1ccc(-c2ccc(Cl)nc2)cc1 (stereo unspecified) | 17.8 µM

Row | Structure (SMILES) | AC40
22 | CCC(=O)Nc1nc(-c2ccc3c(c2)CC(C)N3S(C)(=O)=O)cs1 (stereo unspecified) | 7.5 µM
23 | COc1ccc(C(=O)N=c2sc3ccccc3n2C)cc1OC | 2.13 µM
24 | c1ccc(-c2noc(CC3CCCCC3)n2)cc1 | 4.12 µM
25 | N#Cc1c(/N=C/c2cccs2)sc2c1CCC2 | 0.897 µM
26 | Cc1nc(-c2ccccc2)nc2[nH]ccc(=O)c12 | 4.23 µM
27 | Cc1ccc(NC(=O)C2CCCN(C(=O)c3ccc(Cl)cc3)C2)cc1C (stereo unspecified) | 6.09 µM
28 | Cc1csc(NC(=O)Cc2c[nH]c3ccccc23)n1 | 10.2 µM
29 | Cc1cccc(N=[N+]([O-])c2cccc(C)n2)n1 | 6.4 µM
30 | NC(=O)c1sc2nc(-c3cccs3)ccc2c1N | 2.75 µM
31 | CCN(CC)S(=O)(=O)c1cccc(-c2nc3n(n2)Cc2ccccc2-3)c1 | 21.7 µM
32 | COc1ccc(NC(=O)c2ccc3ccccc3c2OC)cc1 | 2.56 µM
33 | COC(=O)c1c(-c2ccc(S(C)(=O)=O)cc2)sc2ccc(OC)cc12 | 0.954 µM
34 | COc1ccc(NC(=O)c2cc3sccc3n2Cc2ccc(F)cc2)cc1OC | 13.8 µM
35 | Cc1ccccc1C(=O)c1cccn1CC(=O)NCc1cccc(Cl)c1 | 13.6 µM
36 | Cc1ccc2c(CN(C)Cc3ccccc3)cc(=O)oc2c1 | 1.82 µM
37 | COC(=O)c1c(-c2ccc(SC)cc2)sc2ccccc12 | 14.3 µM
38 | COc1ccc(C)cc1NCc1cc(=O)oc2cc(-c3ccccc3)c(O)cc12 | 32.4 µM
39 | Cc1cc(N2CCOCC2)nc2ccc(NC(=O)CCC(=O)N3CCN(c4ccccc4)CC3)cc12 | 11 µM
40 | CS(=O)(=O)c1cccc(-c2csc(N3CCC(C(N)=O)CC3)n2)c1 | < 0.26 µM
41 | CCC1CCCCN1C(=O)c1ccc2nc(Cc3ccc(OC)cc3)oc2c1 (stereo unspecified) | 3.04 µM
42 | COc1ccc(-c2csc(C(O)c3ccc(F)cc3)n2)cc1 (stereo unspecified) | 1.54 µM

Row | Structure (SMILES) | AC40
43 | CCCN1CCN(CCCNC(=O)c2ccc3nc(N4CCCCC4)sc3c2)CC1 | 13.3 µM
44 | CC(=O)c1ccc(OCc2ccccc2)c(C)c1O | 9.35 µM
45 | CN(C)c1ccc(CNc2nc3cc(-c4ccc(F)cc4)sc3c(=O)n2C)cc1 | 2.12 µM
46 | Cc1ccc(C)c(N2CCN(C(=O)CCc3nc(-c4cccc(Cl)c4)no3)CC2)c1 | 2.83 µM
47 | CCCC1(C)Nc2ccccc2-c2nc3ccccc3n21 (stereo unspecified) | 11.3 µM
48 | COc1cccc(OCc2cc(C(=O)N(C)Cc3nc4ccccc4[nH]3)no2)c1 | 2.78 µM
49 | Oc1ccccc1C=NN1CCCCCC1 | 1.93 µM
50 | CC(C)c1ccc(NC(=O)c2ccc3snnc3c2)cc1 | 3.23 µM
51 | Cc1ccc(NC(=O)CN2C(=O)N/C(=C/c3ccccc3OCc3cccc(C(=O)O)c3)C2=O)cc1 | 2.65 µM
52 | COC(=O)c1ccc2[nH]c(C(C)(C)O)c(C)c2c1 | 1.37 µM
53 | COc1cccc(/C=C2\SC(N3CCCC(C)C3)=NC2=O)c1OC (stereo unspecified) | 9.58 µM
54 | Cc1ccc(C(=O)CC(=O)c2ccccc2C)c(O)c1 | 9.56 µM
55 | C=CCn1c(NCc2ccc(OC)cc2O)nc2ccccc21 | 5.58 µM
56 | O=C(c1ccc2ccccc2c1)N1CCc2ccccc21 | 8.41 µM
57 | O=C(NC1CCCC1)c1cc(-c2ccccc2O)on1 | 1.65 µM
58 | C/C(=N\O)c1ccc2c3ccccc3n(C)c2c1 | 3.32 µM
59 | Cc1noc(C)c1COC(=O)c1cc(C)n(-c2ccccc2)c1C | 10 µM
60 | Cc1ccc(Nc2nc(-c3cccnc3)cs2)cc1Cl | 0.961 µM
61 | O=C(NCCc1ccccc1)c1cccc(NC(=O)C2CCC2)c1 | 8.75 µM
